The values below come from US4442102A, “1,5-Diphenylpyrazolin-3-one compounds, process and intermediates for preparation thereof and pharmaceutical compositions containing same” (Kali-Chemie Pharma GmbH, priority 1981, dated 1984).

As a reminder, the ED50 is the dose that gives a 50% effect, or the effect in half of the subjects. High values mean weaker potency, low ones greater potency.

For this experiment, the system named is passive cutaneous anaphylaxis. The experiment in a line: Inhibition of passive cutaneous anaphylaxis (PCA test). The format is in vivo, rats (Wistar). The conditions noted are these: Rattus norvegicus, po; rats, p.o., 10 minutes before ovoalbumin challenge i.p. The protocol: For example, the substances have an inhibiting action on the release of endogenic mediators from mast cells or basophilic leucocytes which leads to allergic reactions. The doses to be used vary, of course, depending on the nature of the substance used, on the mode of administration and on the condition to be treated. In general, however, satisfactory results are achieved in animal experiments with doses of from 0.05 to 75 mg. per kg of body weight.
Description of the test method to determine the inhibition of passive cutaneous anaphylaxis (PCA test, see Arch.int. pharmacology 252 (1981) 316-326).
To prepare the IgE-antiovoalbumin serum, used in the test, by the method of Mota (Immunology 7, (1964) 681) and J. Goose (Immunology 16 (1969) 749), male Wistar rats of 200-250 g. body weight were sensitised by subcutaneous injection of 1 mg. of ovoalbumin and 1 ml. of Bordatella pertussis suspension ("Vaxicoq" Merieux 3.10^10 organisms/ml.). After 14 days, the animals are exsanguinated and the blood is centrifuged. The antiserum thus obtained is stored at […].
Non-sensitised rats are injected, in each case, with 0.1 ml. of antiserum into the skin at four different places on their shaven backs. After 72 hours, a solution of the test compound or, for comparison, only the solvent, is administered orally, and 10 minutes later, 5 mg. of ovoalbumin and 5 mg. of blue dyestuff (Evans blue) in 0.9% strength NaCl solution are administered intraperitoneally. After 30 minutes, the animals are sacrificed and the diameters of the blue spots formed at the sites injected with antiserum are measured. The inhibiting effect of the test substance is determined from the size of the blue spots which appear.
The example numbers given for the compounds of the formula I relate to the preparation Examples below.
`Cc1ccnc(N2CCN(CCCn3c(=O)cc(-c4ccccc4)n3-c3ccccc3)CC2)c1` [Example 27] came in with an ED50 of 8.2 mg/kg.
As for `O=c1cc(-c2ccccc2)n(-c2ccccc2)n1CCCN1CCN(c2ccc(F)cc2)CC1` [Example 22], the ED50 is 9.8 mg/kg. The ED50 values of the last two compounds are within 1.5-fold of each other.
As for `O=c1cc(-c2ccc(Cl)cc2)n(-c2ccccc2)n1CCCN1CCN(c2ccccn2)CC1` [Example 13], the ED50 amounted to 8.5 mg/kg.
The same measure for `O=c1cc(-c2ccccc2)n(-c2ccccc2)n1CCCN1CCN(c2ccccn2)CC1` [Example 1, 1,5-Diphenyl-2-{3-[4-(2-pyridyl)-piperazin-1-yl]-propyl}-pyrazolin-3-one]: 0.8 mg/kg.
